This assay concerns the target T1, human GnRH receptor (Homo sapiens, UniProt P30968).
T1 construct: expressed in transfected cells; host or cells: RBL cells, stably transfected (in general)
T1 sequence (P30968 1-328): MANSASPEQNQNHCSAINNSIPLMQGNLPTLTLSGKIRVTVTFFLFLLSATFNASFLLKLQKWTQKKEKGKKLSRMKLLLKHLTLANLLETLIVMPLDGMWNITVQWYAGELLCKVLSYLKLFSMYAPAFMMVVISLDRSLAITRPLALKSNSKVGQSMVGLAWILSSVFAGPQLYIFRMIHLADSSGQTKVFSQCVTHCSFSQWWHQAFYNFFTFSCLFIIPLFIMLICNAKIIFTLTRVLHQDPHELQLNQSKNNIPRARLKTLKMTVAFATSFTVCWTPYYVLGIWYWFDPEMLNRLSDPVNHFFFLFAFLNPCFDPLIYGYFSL
Kind of assay: Peptide competition radioligand binding displacement assay, human GnRH receptor membranes. The note with it: one or more of the peptide competition human receptor binding assays. A digest of the protocol: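 Membranes for radioligand binding were prepared from RBL cells stably expressing human GnRH receptor, which were lysed by nitrogen cavitation at 900 psi, 4° C. Membranes from HEK293 cells stably transfected with human receptor were held in 10 mM HEPES pH 7.5, 150 mM NaCl, 0.1% BSA. Transiently transfected COS-7 cells were used for other species.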

On to `CN(C(=O)c1ccc(Cl)c(-c2cnc(C(F)(F)F)cc2C#N)c1)c1ccccc1OCCN1CCC[C@H]1C(=O)O` [50-3], for which the Ki (in general, the equilibrium dissociation constant of an inhibitor or competing ligand from its target) was at most 0.1 µM. As for `Cc1cnc(-c2cc(C(=O)N(C)c3cccc(C)c3C)ccc2Cl)c(C)c1` [2-68], the Ki is at most 0.1 µM. `CN(C(=O)c1cc(-c2cnc(C(F)(F)F)cc2C#N)c(Cl)cc1OCCCC(=O)O)c1ccccc1` [34-8] gave a Ki of at most 0.1 µM. `COc1ccccc1N(C)C(=O)c1cc(-c2cnc(C(F)(F)F)cc2C#N)c(Cl)cc1OCCCNC(C)=O` [47-3] showed a Ki of at most 0.1 µM. In the case of `COc1cccc(N(C)C(=O)c2cc(-c3cnc(C(F)(F)F)cc3C#N)c(Cl)cc2OCCCC(=O)O)n1` [34-19], the Ki is at most 0.1 µM.

`COC(=O)CCCOc1ccccc1N(C)C(=O)c1ccc(Cl)c(-c2cnc(C(F)(F)F)cc2C#N)c1` [3-10] returned a Ki of at most 0.1 µM. Regarding `Cc1cc(C#N)ncc1-c1cc(C(=O)N(C)c2ccccc2CCCC(=O)O)ccc1Cl` [14-3], the Ki is at most 0.1 µM.

The compound `Cc1cc(Cl)ncc1-c1cc(C(=O)N(C)c2c(C)cccc2OCCCC(=O)O)ccc1Cl` [4-3] gave a Ki of at most 0.1 µM. The compound `Cc1cc(C#N)ncc1-c1cc(C(=O)N(C)c2ccccc2OCCC(=O)O)ccc1Cl` [11-1, 3-(2-{[4-Chloro-3-(6-cyano-4-methyl-pyridin-3-yl)-benzoyl]-methyl-amino}-phenoxy)-propionic acid] returned a Ki of at most 0.1 µM. The same measure for `CN(C)CCOc1ccccc1N(C)C(=O)c1ccc(Cl)c(-c2cnc(Cl)cc2Cl)c1` [7-1, 4-Chloro-3-(4,6-dichloro-pyridin-3-yl)-N-[2-(2-dimethylamino-ethoxy)-phenyl]-N-methyl-benzamide]: at most 0.1 µM; for `COc1ccccc1N(C)C(=O)c1ccc(Cl)c(-c2ccc(Cl)cc2C#N)c1` [2-55]: at most 0.1 µM; for `CCOC(=O)CCCOc1cc(Cl)c(-c2cnc(C(F)(F)F)cc2C#N)cc1C(=O)N(C)c1ccccc1OC` [43-1, 4-{5-Chloro-4-(4-cyano-6-trifluoromethyl-pyridin-3-yl)-2-[(2-methoxy-phenyl)-methyl-carbamoyl]-phenoxy}-butyric acid ethyl ester]: at most 0.1 µM. The same measure for `Cc1cc(C#N)ncc1-c1cc(C(=O)N(C)c2c(C)cccc2C)c(OCCCC(=O)O)cc1Cl` [22-8]: at most 0.1 µM; for `Cc1c(F)cccc1N(C)C(=O)c1ccc(Cl)c(-n2c(C)cc(C(F)(F)F)nc2=O)c1` [30-7]: at most 0.1 µM; for `Cc1cc(Cl)c(-c2cc(C(=O)N(C)c3cccc(C)c3C)ccc2Cl)c(C)n1` [2-21]: at most 0.1 µM. Regarding `COc1cccc(C)c1N(C)C(=O)c1cc(-c2cnc(C(F)(F)F)cc2C#N)c(Cl)cc1OCCCO` [21-8], the Ki is at most 0.1 µM. `Cc1cc(Cl)c(-c2cc(C(=O)N(C)c3cccc(C(F)(F)F)c3C)ccc2Cl)c(C)n1` [2-25] showed a Ki of at most 0.1 µM.

`COc1ccccc1N(C)C(=O)c1cc(-c2cnc(C(F)(F)F)cc2C#N)c(Cl)cc1OCCCN1C(=O)c2ccccc2C1=O` [46-4] showed a Ki of at most 0.1 µM. In the case of `Cc1cc(C(F)(F)F)nc(=O)n1-c1cc(C(=O)N(C)c2cccc(F)c2F)ccc1Cl` [30-13], the Ki was at most 0.1 µM. `COc1c(Cl)cccc1N(C)C(=O)c1ccc(Cl)c(-c2ncc(Cl)cc2Cl)c1` [19-7]: the Ki was at most 0.1 µM. For `CN(C(=O)c1ccc(Cl)c(-c2cnc(C(F)(F)F)cc2C#N)c1)c1ccccc1OCCCC(=O)O` [4-10], the Ki is at most 0.1 µM. The same measure for `Cc1cnc(-c2cc(C(=O)N(C)c3cccc(C)c3C)ccc2Cl)c(Cl)c1` [2-67]: at most 0.1 µM; for `CN(C(=O)c1ccc(Cl)c(-c2cnc(C(F)(F)F)cc2C#N)c1)c1ccccc1OCCC(=O)O` [11-4, 3-(2-{[4-chloro-3-(4-cyano-6-trifluoromethyl-pyridin-3-yl)-benzoyl]-methyl-amino}-phenoxy)-propionic acid]: at most 0.1 µM. For the compound `COc1cc(Cl)c(-c2cnc(C(F)(F)F)cc2C#N)cc1C(=O)N(C)c1ncccc1C` [39-21], the Ki is at most 0.1 µM. The compound `COc1cccc(C)c1N(C)C(=O)c1cc(-c2cnc(C(F)(F)F)cc2C#N)c(Cl)cc1OCCCC(=O)O` [22-1, 4-{5-Chloro-4-(4-cyano-6-trifluoromethyl-pyridin-3-yl)-2-[(2-methoxy-6-methyl-phenyl)-methyl-carbamoyl]-phenoxy}-butyric acid] showed a Ki of at most 0.1 µM. Regarding `COc1ccccc1N(C)C(=O)c1ccc(Cl)c(-c2nc3ccccc3cc2C#N)c1` [2-49], the Ki was at most 0.1 µM. For the compound `COCc1cc(Cl)ccc1N(C)C(=O)c1cc(-c2cnc(C(F)(F)F)cc2C#N)c(Cl)cc1OCCCC(=O)O` [34-9], the Ki was at most 0.1 µM.

`CSc1ccccc1N(C)C(=O)c1ccc(Cl)c(-c2cnc(C(F)(F)F)cc2C#N)c1` [2-81] came in with a Ki of at most 0.1 µM. As to `COc1cccc(C)c1N(C)C(=O)c1cc(-c2cnc(C(F)(F)F)cc2C#N)c(Cl)cc1OCCCN` [23-1, 2-(3-Amino-propoxy)-4-chloro-5-(4-cyano-6-trifluoromethyl-pyridin-3-yl)-N-(2-methoxy-6-methyl-phenyl)-N-methyl-benzamide], the Ki is at most 0.1 µM. `CCOC(=O)CCOc1ccccc1N(C)C(=O)c1ccc(Cl)c(-c2cnc(C(F)(F)F)cc2C#N)c1` [16-2, 3-(2-{[4-chloro-3-(4-cyano-6-trifluoromethyl-pyridin-3-yl)-benzoyl]-methyl-amino}-phenoxy)-propionic acid ethyl ester] displayed a Ki of at most 0.1 µM.

`Cc1ccccc1N(C)C(=O)c1cc(-c2cnc(Cl)cc2Cl)c(Cl)cc1OCCCC(=O)O` [20-2] returned a Ki of at most 0.1 µM.

For `Cc1cccc(C)c1N(C)C(=O)c1cc(-c2cnc(C(F)(F)F)cc2C#N)c(Cl)cc1OCCCC(=O)O` [22-4], the Ki is at most 0.1 µM. In the case of `COc1ccccc1N(C)C(=O)c1cc(-c2cnc(C(F)(F)F)cc2C#N)c(Cl)cc1OCCN(C)S(C)(=O)=O` [48-2, 4-Chloro-5-(4-cyano-6-trifluoromethyl-pyridin-3-yl)-2-[2-(methanesulfonyl-methyl-amino)-ethoxy]-N-(2-methoxy-phenyl)-N-methyl-benzamide], the Ki is at most 0.1 µM. Under `COC(=O)c1ccc(Cl)cc1N(C)C(=O)c1cc(-c2cnc(C(F)(F)F)cc2C#N)c(Cl)cc1OC` [39-8] stands at most 0.1 µM. Consider `Cc1cccc(OCCC(=O)O)c1N(C)C(=O)c1ccc(Cl)c(-c2cnc(C(F)(F)F)cc2C#N)c1` [11-7], for which the Ki is at most 0.1 µM. The compound `Cc1cc(Cl)ncc1-c1cc(C(=O)N(C)c2ccccc2OCCCC(=O)O)ccc1Cl` [4-2] gave a Ki of at most 0.1 µM.

Source of the values: US8481738B2, “Gonadotropin-releasing hormone receptor antagonists and methods relating thereto” (Neurocrine Biosciences, Inc., priority 2007, dated 2013).
